Series [1] has as its system primary rat brain endothelial cells (RBEC). In words: Real-time impedance measurement of cellular toxicity on RBEC. The format is cell-based. The note with it: Quasar 570 labelled PepH3 1.875-120 µM, 24 h; impedance at 10 kHz; n=6-12. The method, then:
Kinetics of the effect of PepH3 peptide, PepH3-tagged and non-tagged NPs on RBEC cells was monitored by impedance measurement at 10 kHz (RTCA-SP instrument; ACEA Biosciences, USA). Impedance measurement is a label-free, real time, non- invasive method, and correlates linearly with adherence, growth, number, and viability of cells. For background measurements 50 µL cell culture medium was added to the wells, then cells were seeded at a density of 6 × 10^3 cells/well to collagen type IV (100 µg/mL) and fibronectin (25 µg/mL) coated 96-well plates with integrated gold electrodes (E-plate 96, ACEA Biosciences, USA). Cells were cultured for 4 days and monitored every 5 min until the end of experiments. At the beginning of plateau phase of growth, cells were treated with PepH3 (1.875-120 µM) and PepH3-tagged and non-tagged NPs (0.1-3.0 mg/mL) for 24 h. Cell index was defined as Rn-Rb at each time point of measurement, where Rn is the cell-electrode impedance of the well when it contains cells and Rb is the background impedance of the well with the medium alone.

The subject of series [2] is rat triple co-culture BBB model (RBEC, RPC, RAC). The settings on record: 10 nM, 30 min.
The test system of series [3] is primary rat brain endothelial cells (RBEC). In words: Cellular uptake of PepH3 peptide in living RBECs (confocal microscopy, image analysis). Format: cell-based. The settings on record: Quasar 570 labelled PepH3 100 nM, 37 °C, confocal image analysis normalized to nuclear intensity, n=10-25. As to the method:
To visualize the cellular uptake of PepH3 peptide alone, the cells were cultured in Matrigel coated glass bottom culture dishes (diameter: 3.5 cm, Greiner Bio-One, Germany). Confluent monolayers were incubated with the peptide solution (100 nM) diluted in the culture medium of RBEC at 37 °C for 30 min, 5–24 h. For the staining of cell nuclei, Hoechst 33342 dye (1 µg/mL, 10 min) was used. After incubation the culture medium was removed and cells were washed with Ringer-HEPES buffer (118 mM NaCl, 4.8 mM KCl, 2.5 mM CaCl2, 1.2 mM MgSO4, 5.5 mM D-glucose, 20 mM HEPES, pH 7.4) supplemented with 1% PDS. For visualization of PepH3, living cells was imaged using Leica TCS SP5 confocal laser scanning microscope (Leica Microsystems, Germany).

The conditions of series [4]: cited from earlier work. An excerpt:
There was a fast clearanc ...

As to “Q-AGILKRW-NH2 [PepH3, cationic 7-residue peptide (AGILKRW), BBB peptide shuttle derived from Dengue virus type-2 capsid protein; tested Quasar 570 labelled]”, in series [1], the “Effect on impedance (viability) of RBEC cell layers” value is reported as “good cell viability”. Moreover, the “Papp of PepH3 relative to transcellular BBB marker albumin (EBA)” value in series [2] amounted to 71 times. Moreover, in series [3], the “Peptide internalization after 5 h compared to the 30 min group” value is given as 1.9 fold and the “Peptide internalization after 24 h compared to the 30 min group” value is recorded as 6 fold. Moreover, the “Accumulation in liver, lung and kidney in vivo” value in series [4] (biodistribution profile compared to FC5) is recorded as “low accumulation”. For the same substance, the “Brain uptake in vivo” value in series [4] (radiolabeled PepH3 peptide derivatives, biodistribution) is “high brain uptake”.

The values are drawn from PMC11959756, “PepH3-modified nanocarriers for delivery of therapeutics across the blood-brain barrier” (Fluids and Barriers of the CNS, 2025).
